Source: patent US20220175722A1, “DEGRADERS OF FIBROBLAST GROWTH FACTOR RECEPTOR 2 (FGFR2)” (DANA-FARBER CANCER INSTITUTE, INC., priority 2019, published 2022)
Where two headings read alike, the source gives them in different places.

Experiments:
FGFR2 = assay: Rescue of degrader-induced FGFR2 degradation by pretreatment, immunoblot in Kato III cells; type: cell-based; details: for rescue of FGFR2 degradation induced by bispecific compound 6: pretreated 2 h (10 μM BGJ398, 10 μM control-1, 0.5 M Bortezomib, 1 μM MLN4924), then 0.1 M bispecific compound 6 for 4 h; for rescue of FGFR2 degradation induced by bispecific compound 20: pretreated 2 h (10 μM FIIN2, 10 M control-1, 0.5 M Bortezomib, 1 μM MLN4924), then 1 M bispecific compound 20 for 4 h
Experimental: Kato III cells were pretreated with 10 μM BGJ398 (the parental compound and known FGFR1/2/3 inhibitor; available from, e.g., MedChemExpress®, Cat. No. HY-13311, Monmouth Junction, N.J.), 10 μM control-1 (VHL ligand), 0.5 M Bortezomib (a proteasome inhibitor; available from, e.g., Millipore Sigma®, Cat. No. 179324-69-7, Burlington, Mass.), and 1 μM MLN4924 (a neddylation inhibitor; available from, e.g., MedChemExpress®, Cat. No. HY-70062, Monmouth Junction, N.J.), for 2 h, and then treated with 0.1 M bispecific compound 6 for 4 h. Cells were lysed and immunoblotted as described above with antibodies to FGFR2 and β-Actin.
Kato III cells were pretreated with 10 μM FIIN2 (the parental compound and known FGFR1/2/3/4 inhibitor; available from, e.g., Selleckchem, Cat. No. S7714, Houston, Tex.), 10 M control-1 (VHL ligand), 0.5 M Bortezomib (a proteasome inhibitor; available from, e.g., Millipore Sigma, Cat. No. 179324-69-7, Burlington, Mass.), and 1 μM MLN4924 (a neddylation inhibitor; available from, e.g., MedChemExpress, Cat. No. HY-70062, Monmouth Junction, N.J.), for 2 h, and then treated with 1 M bispecific compound 20 for 4 h. Cells were lysed and immunoblotted as described above with antibodies to FGFR2 and β-Actin.

[1] = system: FGFR alteration (fusions, amplifications, or point mutations); details: cited from earlier work
Kato III cells = assay: cells; details: 72 h
Experimental: (§1) Kato III cells were treated with bispecific compound 6 or BGJ398 at the indicated concentrations for 72 h. Cell viability was determined using Cell-Titer Glo (Promega™) according to the manufacturer's instructions. IC50 values (defined as the concentration of compound needed to reduce cell viability to 50% of the vehicle DMSO control) were estimated by using GraphPad Prism 7.0 (GraphPad Prism®).
Cell viability was determined using Cell-Titer Glo (Promega™) according to the manufacturer's instructions. IC50 values were estimated by using GraphPad Prism 7.0 (GraphPad Prism®).
as §1, with “6, bispecific compound 7” for “6”, “(Promega™),” for “(Promega™)”

CDK9 = molecular target: T1, CDK9 (Homo sapiens, UniProt P50750); assay: CDK9 degradation by immunoblot (positive control); type: cell-based; details: 16 hours
T1 construct: endogenous in cells; host or cells: Kato III; CCLP1; JHH7
T1 sequence (P50750 whole entry): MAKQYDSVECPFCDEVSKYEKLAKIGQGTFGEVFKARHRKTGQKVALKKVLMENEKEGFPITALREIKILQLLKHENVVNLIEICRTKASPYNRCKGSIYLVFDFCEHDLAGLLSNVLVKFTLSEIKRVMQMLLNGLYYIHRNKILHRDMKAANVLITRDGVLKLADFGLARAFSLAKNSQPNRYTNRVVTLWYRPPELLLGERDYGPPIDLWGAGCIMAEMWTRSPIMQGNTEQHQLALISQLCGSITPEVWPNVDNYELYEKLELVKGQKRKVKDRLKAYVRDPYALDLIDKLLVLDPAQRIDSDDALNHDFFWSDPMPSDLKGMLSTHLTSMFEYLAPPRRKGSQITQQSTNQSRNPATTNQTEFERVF
T1 sequence (O60563 whole entry partner): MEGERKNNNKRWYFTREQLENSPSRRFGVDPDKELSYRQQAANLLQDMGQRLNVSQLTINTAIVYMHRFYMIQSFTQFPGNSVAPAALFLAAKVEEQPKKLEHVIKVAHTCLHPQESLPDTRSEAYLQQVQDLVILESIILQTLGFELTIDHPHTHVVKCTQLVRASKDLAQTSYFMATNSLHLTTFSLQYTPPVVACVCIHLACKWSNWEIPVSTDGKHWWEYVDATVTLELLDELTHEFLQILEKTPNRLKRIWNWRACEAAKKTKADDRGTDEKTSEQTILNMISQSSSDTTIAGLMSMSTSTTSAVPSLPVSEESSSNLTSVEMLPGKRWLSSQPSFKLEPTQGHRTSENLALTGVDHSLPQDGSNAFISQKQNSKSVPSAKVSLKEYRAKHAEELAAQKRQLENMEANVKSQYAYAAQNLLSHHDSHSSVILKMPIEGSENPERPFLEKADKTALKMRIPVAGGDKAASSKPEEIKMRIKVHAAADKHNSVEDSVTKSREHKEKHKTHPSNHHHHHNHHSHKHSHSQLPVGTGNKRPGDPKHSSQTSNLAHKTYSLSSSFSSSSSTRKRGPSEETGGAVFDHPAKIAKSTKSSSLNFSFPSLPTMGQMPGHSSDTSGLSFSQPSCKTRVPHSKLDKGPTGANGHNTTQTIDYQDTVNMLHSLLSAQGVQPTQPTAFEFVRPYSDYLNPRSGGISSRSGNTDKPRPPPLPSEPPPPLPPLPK
Experimental: Kato III cells were treated with 0, 0.1, 1, or 10 M of bispecific compound 6 or 0.5 M THAL-SNS-032 (a known CDK9 degrader and positive control for CDK9 degradation; available from, e.g., MedChemExpress®, Cat. No. HY-10008, Monmouth Junction, N.J.) for 16 hours. Cells were then lysed in RIPA buffer (Millipore Sigma®) containing protease/phosphatase inhibitor cocktail (Roche®). The protein concentrations were measured by bicinchoninic acid assay (BCA) analysis (Pierce™). Equal amounts of protein were resolved by 4-12% Tris-Base gels (Invitrogen™), and then transferred to the Immuno-Blot PVDF membrane (Bio-Rad®), and immunoblotted with primary antibodies against FGFR2 (cell signaling), CDK9 (cell signaling) and […] (cell signaling), and then immunoblotted with IRDye®800-labeled goat anti-rabbit IgG and IRDye®800-labeled goat anti-mouse IgG (LI-COR®) secondary antibodies. The membranes were detected on Odyssey CLx system.
CCLP1 cells were treated with 0, 0.1, 1, or 10 M of bispecific compound 6 or 0.5 μM THAL-SNS-032 for 16 hours, and then lysed and immunoblotted with antibodies to FGFR1 (cell signaling), CDK9, and β-Actin.
JHH7 cells were treated with 0, 0.1, 1, or 10 M of bispecific compound 6 or 0.5 M THAL-SNS-032 for 16 hours, and then lysed and immunoblotted with antibodies to FGFR3 (cell signaling), FGFR4 (cell signaling), CDK9, and β-Actin.

[2] = patients with advanced refractory ICC with an FGFR alteration

For `CCN1CCN(c2ccc(Nc3cc(N(C)C(=O)Nc4c(Cl)c(OC)cc(OC)c4Cl)ncn3)cc2)CC1` [BGJ398], the “rescue of FGFR2 degradation induced by bispecific compound 6” value (shortened to “rescue … by bispecific compound 6”) (FGFR2) is given as “rescued the FGFR2 degradation”, the “disease control rate (DCR; partial responses+stable disease)” value ([1]; FGFR2 fusions only) is given as 83.3% and the “overall response rate (ORR)” value ([1]; FGFR2 fusions only) is given as 18.8%. For the same compound, the “Median progression free survival” value [1, 2] was 5,8 months, the “disease control rate (DCR; partial responses+stable disease)” value [1, 2] was 75.4% and the “overall response rate (ORR)” value [1, 2] was 14.8%. The IC50 (Kato III cells; Homo sapiens, KATO III, read-out: IC50 (concentration needed to reduce cell viability to 50% of the vehicle DMSO control)) was ~1 nM and the anti-proliferation effect (Kato III cells; Kato III cells) was “good anti-proliferation effect”.

In the case of `CC(C)C[C@H](NC(=O)[C@H](Cc1ccccc1)NC(=O)c1cnccn1)B(O)O` [Bortezomib], the “rescue … by bispecific compound 6” value (FGFR2) is reported as “rescued the FGFR2 degradation” and the “rescue of FGFR2 degradation induced by bispecific compound 20” value (“rescue … by bispecific compound 20” for short) (FGFR2) is reported as “rescued the FGFR2 degradation”.

With `C=CC(=O)Nc1ccc(CN2C(=O)N(c3cc(OC)cc(OC)c3)Cc3cnc(Nc4ccc(N5CCN(C)CC5)cc4)nc32)cc1` [FIIN2] the “rescue … by bispecific compound 20” value (FGFR2) was “rescued the FGFR2 degradation”.

With `CC(=O)N[C@H](C(=O)N1C[C@H](O)C[C@H]1C(=O)N[C@@H](C)c1ccc(-c2scnc2C)cc1)C(C)(C)C` [control-1] the “rescue … by bispecific compound 6” value (FGFR2) was “rescued the FGFR2 degradation” and the “rescue … by bispecific compound 20” value (FGFR2) was “rescued the FGFR2 degradation”.

With `NS(=O)(=O)OC[C@@H]1C[C@@H](n2ccc3c(N[C@H]4CCc5ccccc54)ncnc32)C[C@@H]1O` [MLN4924] the “rescue … by bispecific compound 6” value (FGFR2) was “rescued the FGFR2 degradation” and the “rescue … by bispecific compound 20” value (FGFR2) was “rescued the FGFR2 degradation”.

In the case of `CC(C)(C)c1cnc(CSc2cnc(NC(=O)C3CCN(CC(=O)NCCOCCOCCOCCNc4cccc5c4C(=O)N(C4CCC(=O)NC4=O)C5=O)CC3)s2)o1` (stereo not drawn) [THAL-SNS-032], the CDK9 degradation (CDK9; CCLP1 cells, 0.5 μM) is reported as “induced CDK9 degradation”, the CDK9 degradation (CDK9; JHH7 cells, 0.5 µM) is reported as “induces CDK9 degradation” and the CDK9 degradation (CDK9; Kato III cells, 0.5 µM) is reported as “induced CDK9 degradation”.
